Values of other authors, collected in patent US20030059487A1, “Composition and method for the treatment of hypercholesterolemia and hyperlipidemia in mammals” (priority 2001, published 2003).

Conditions: background statement on Lipitor

SMILES: CC(C)c1c(C(=O)Nc2ccccc2)c(-c2ccccc2)c(-c2ccc(F)cc2)n1CC[C@@H](O)C[C@@H](O)CC(=O)O [atorvastatin]
- raises HDL cholesterol: 5 to 10%
- reduces LDL: 40 to 60%
- reduces triglycerides: 20 to 40%
